According to patent publication US7151096:
Where two headings read alike, the source gives them in different places.

## c1cc2cc(c1)OCCCNc1ncccc1-c1ccnc(n1)N2
From Oc1cccc(Nc2nccc(-c3cccnc3NCCCBr)n2)c1, ether bond, K2CO3, acetone, 19.3 mM, 56.0 °C, 6.0 h, 3 steps
  ring closure, yield of all isomers: 34.6%

## O=C1Cc2cccc(c2)Nc2nccc(n2)-c2ccnc(c2)NCCCN1
From NCCCNc1cc(-c2ccnc(Nc3cccc(CC(=O)O)c3)n2)ccn1, amide bond, HATU, DMF, 1.52 mM, 0.0 °C, 3.0 h
  ring closure, yield of all isomers: 74.2%

## c1cc2cc(c1)OCCCNc1cc(ccn1)-c1ccnc(n1)N2
From Oc1cccc(Nc2nccc(-c3ccnc(NCCCBr)c3)n2)c1, ether bond, K2CO3, acetone, 6.5 mM, 56.0 °C, 3.0 h, 2 steps
  ring closure, yield of all isomers: 26.5%
